In patent publication US12679836B2, “4H-pyrrolo[3,2-c]pyridin-4-one compounds” (Bayer Aktiengesellschaft, priority 2019, dated 2026):

Columns and labels:
Ba/F3-EGFR-WT cells = Ba/F3-EGFR-WT cells (Homo sapiens, UniProt P00533); assay: Ba/F3 cell survival assay (Cell Titer-Glo), WT EGFR; format: cell-based; details: without IL-3, with 10 ng/mL EGF, 48 h; read-out: BA/F3 (wild type) IC50
Procedure, shortened: (§1)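 Ba/F3 cells stably expressing WT EGFR or EGFR-insSVD from retroviral transduction were grown without IL-3 on 10 ng/mL EGF. Cells were plated at 4000 cells/well, treated with compound for 48 h at 37° C, and viability was read by CellTiter-Glo luminescence.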

Ba/F3-EGFR-insSVD cells = Ba/F3-EGFR-insSVD cells (Homo sapiens, UniProt P00533, DUP768-770, cells depend on it); assay: Ba/F3 cell survival assay (Cell Titer-Glo), EGFR-insSVD; format: cell-based; details: without IL-3, with 10 ng/mL EGF, 48 h; read-out: BA/F3 (insSVD) IC50
Sequence of Ba/F3-EGFR-insSVD cells (P00533 with tags, fused parts or gaps DUP768-770): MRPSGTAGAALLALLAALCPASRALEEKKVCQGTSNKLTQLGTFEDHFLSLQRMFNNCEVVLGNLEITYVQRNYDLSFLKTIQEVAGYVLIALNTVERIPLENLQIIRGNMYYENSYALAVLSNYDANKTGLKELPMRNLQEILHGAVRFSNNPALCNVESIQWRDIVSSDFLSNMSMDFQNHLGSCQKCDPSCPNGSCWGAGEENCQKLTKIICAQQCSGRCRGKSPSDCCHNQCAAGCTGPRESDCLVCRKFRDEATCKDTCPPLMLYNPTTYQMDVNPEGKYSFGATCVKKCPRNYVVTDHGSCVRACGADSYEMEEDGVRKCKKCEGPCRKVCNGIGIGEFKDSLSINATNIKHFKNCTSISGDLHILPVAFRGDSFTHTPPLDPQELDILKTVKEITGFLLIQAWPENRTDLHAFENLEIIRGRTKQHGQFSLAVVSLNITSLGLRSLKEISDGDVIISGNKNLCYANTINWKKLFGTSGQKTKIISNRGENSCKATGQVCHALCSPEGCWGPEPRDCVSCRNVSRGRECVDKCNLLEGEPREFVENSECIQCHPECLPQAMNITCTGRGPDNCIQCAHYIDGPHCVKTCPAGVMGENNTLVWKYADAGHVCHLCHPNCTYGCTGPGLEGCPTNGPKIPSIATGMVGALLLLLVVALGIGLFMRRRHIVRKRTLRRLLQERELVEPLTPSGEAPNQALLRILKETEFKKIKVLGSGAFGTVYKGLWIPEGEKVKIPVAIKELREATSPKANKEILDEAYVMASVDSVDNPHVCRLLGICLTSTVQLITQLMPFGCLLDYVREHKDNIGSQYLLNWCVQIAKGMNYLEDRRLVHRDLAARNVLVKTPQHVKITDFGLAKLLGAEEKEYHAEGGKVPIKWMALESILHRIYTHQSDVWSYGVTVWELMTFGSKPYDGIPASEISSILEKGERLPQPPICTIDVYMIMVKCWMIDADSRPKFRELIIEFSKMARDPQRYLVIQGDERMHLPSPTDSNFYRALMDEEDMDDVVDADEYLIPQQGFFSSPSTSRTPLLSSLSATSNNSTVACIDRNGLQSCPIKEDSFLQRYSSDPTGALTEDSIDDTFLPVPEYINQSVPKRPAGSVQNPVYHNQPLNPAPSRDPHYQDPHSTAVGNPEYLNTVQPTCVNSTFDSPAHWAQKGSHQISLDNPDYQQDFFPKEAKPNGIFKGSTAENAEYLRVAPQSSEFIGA
Procedure, shortened: as §1

[1] = molecular target: T1, EGFR with insertion of SVD between D770 and N771 (EGFR ins SVD) (Homo sapiens, UniProt P00533, DUP768-770); assay: Exon20-Mutant-EGFR(D770_N771insSVD) kinase assay (TR-FRET); format: biochemical; details: 2 mM ATP, several values per example where printed
T1 construct: made in house; host or cells: Sf9 insect cells (baculovirus)
T1 sequence (P00533 with tags, fused parts or gaps DUP768-770): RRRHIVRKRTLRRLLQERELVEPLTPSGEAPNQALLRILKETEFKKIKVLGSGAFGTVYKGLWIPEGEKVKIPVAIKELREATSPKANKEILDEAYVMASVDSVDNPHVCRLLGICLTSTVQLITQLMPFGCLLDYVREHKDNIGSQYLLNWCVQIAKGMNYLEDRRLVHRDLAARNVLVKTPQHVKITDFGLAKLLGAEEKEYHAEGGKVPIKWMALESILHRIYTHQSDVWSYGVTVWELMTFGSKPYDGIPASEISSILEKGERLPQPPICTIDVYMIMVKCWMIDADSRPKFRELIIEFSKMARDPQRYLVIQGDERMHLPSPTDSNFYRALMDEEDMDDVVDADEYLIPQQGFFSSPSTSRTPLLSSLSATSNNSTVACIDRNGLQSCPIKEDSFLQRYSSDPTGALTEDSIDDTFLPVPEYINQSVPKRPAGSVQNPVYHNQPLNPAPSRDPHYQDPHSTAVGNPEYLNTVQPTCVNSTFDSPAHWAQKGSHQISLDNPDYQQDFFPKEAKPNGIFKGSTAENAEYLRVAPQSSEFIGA

PC9 cells (EGFRex19del) = assay: PC9 proliferation assay (Cell Titer Glo); format: cell-based; details: Homo sapiens, PC-9, 72 h
Method: Cellular Data Description (PC9 Cells, EGFRex19del)
(§2) PC9 cells were purchased from ATCC. 400 PC9 cells per well were seeded in growth medium (DMEM, 10% FCS) in a 384-well plate (CORNING #3571). Seed reference plate for time zero determination on the same day. All plates were incubated overnight at 37° C. After 24 hours, test compound were added in 7-step dilution using HP Compound printer and incubated at 37° C. for 72 h. After 3 days, 30 μL/well CTG solution (Promega Cell Titer Glo solution; catalog # G755B and G756B) were added to each well, incubated for 30 minutes and the plate were read on PheraStar. Proliferation is calculated after subtracting time zero luminescence values from day 4 values and comparing to untreated wells. The IC50 values were determined using the four parameter fit.

Bub1 = molecular target: T2, Bub1 (Homo sapiens, UniProt O43683); assay: Bub1 TR-FRET high ATP kinase assay; format: biochemical; details: Bub1 high ATP (2 mM) IC50 [mol/l], 2 mM ATP
T2 construct: catalytic domain of human Bub1 (amino acids 704-1085); His6 (N); made in house; host or cells: Hi5 insect cells
T2 sequence (O43683 704-1085): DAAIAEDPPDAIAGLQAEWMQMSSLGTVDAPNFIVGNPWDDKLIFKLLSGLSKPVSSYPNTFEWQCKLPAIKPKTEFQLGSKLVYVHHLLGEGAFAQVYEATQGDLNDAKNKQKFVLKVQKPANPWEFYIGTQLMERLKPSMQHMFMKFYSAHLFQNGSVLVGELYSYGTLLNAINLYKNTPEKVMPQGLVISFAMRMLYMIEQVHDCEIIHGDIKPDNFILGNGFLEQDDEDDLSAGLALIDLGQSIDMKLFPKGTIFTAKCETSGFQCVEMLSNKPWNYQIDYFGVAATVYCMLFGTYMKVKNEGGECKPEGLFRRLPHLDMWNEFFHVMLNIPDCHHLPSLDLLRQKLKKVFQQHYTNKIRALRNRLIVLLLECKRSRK
Procedure, shortened: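 Recombinant His6-tagged human Bub1 catalytic domain (aa 704-1085), from Hi5 insect cells, phosphorylating a biotinylated peptide substrate at high ATP concentration. TR-FRET read-out.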

[2] = test system: HCC-827 cells (EGFRex19del); assay: HCC-827 proliferation assay (Cell Titer Glo); format: cell-based; details: Homo sapiens, HCC827, 72 h
Method: Cellular Data Description (HCC-827 Cells, EGFRex19del)
as §2, with “HCC-827 cells” for “PC9 cells”, “[…]” for “400 PC9”, “medium (RPM11640,” for “medium (DMEM,”, “wells.” for “wells. The IC50 values were determined using the four parameter fit.”
The IC50 values were determined using the four parameter fit.

[3] = molecular target: Ba/F3-ERBB2-A775_G776insYVMA cells (Homo sapiens, UniProt P04626, DUP772-775, cells depend on it); assay: Ba/F3 cell survival assay, ERBB2 A775_G776insYVMA; format: cell-based; details: without IL-3, without EGF, 48 h; read-out: BA/F3 (ERBB2 A775_G776 insYVMA) IC50
Method: (§3) 293T cells from ATCC were transfected with pBABEpuro expression constructs for mutant EGFR (V769_D770insASV, D770_N771insNPG, N771_P772insH, H773_V774insNPH, E746_A750del, L858R, D770_N771insSVD C797S, E746_A750del C797S, L858R C797S, L861Q) or mutant ERBB2 (A775_G776insYVMA) and pCL-Eco packaging vector using Fugene-6 transfection reagent from Promega. Plates were incubated at 37° C. for 48 h. Retrovirus was harvested by filtering the media supernatant through a 0.45 μm filter.
(§4) Ba/F3 cells purchased from DSMZ were grown in RPMI+10% FBS+10 ng/mL IL-3 and infected with filtered retroviral supernatant at a 1:2 dilution. Polybrene was added to a concentration of 8 μg/mL, plates were spun for 90 min, and incubated overnight at 37° C. 2 μg/mL puromycin was added to the infected cells 24 h after infection and cells were continually grown in the presence of puromycin and 10 ng/mL IL-3. Following stably expressing Ba/F3 cell lines were generated: Ba/F3-EGFR-V769_D770insASV, Ba/F3-EGFR-D770_N771insNPG, Ba/F3-EGFR-N771_P772insH, Ba/F3-EGFR-H773_V774insNPH, Ba/F3-EGFR-E746_A750del, Ba/F3-EGFR-L858R, Ba/F3-EGFR-D770_N771 insSVD C797S, Ba/F3-EGFR-E746_A750del C797S, Ba/F3-EGFR-L858R C797S, Ba/F3-EGFR L861Q and Ba/F3-ERBB2-A775_G776insYVMA (Ba/F3-vector-control).
(§5) For cell survival assays, Ba/F3 cells were grown to a density of 1-2 million cells per mL, spun down and resuspended in media without IL-3, and replated at a concentration 200,000-500,000 cells per mL. The cells ectopically expressing WT EGFR plated with 10 ng/mL Millipore Culture grade EGF and Ba/F3 cells containing mutant EGFR or Mutant ERBB2 were cultivated without EGF. The cells ectopically expressing pBABEpuro empty vector were plated with 10 ng/mL IL-3.
(§6) 2 days later, cells were plated in 50 μL in a 384 well plate at a concentration of 4000 cells per well for cells assayed in the absence of IL-3 and 2000 cells per well for cells assayed in the presence of IL-3. 100 nL of compound was added to each well using a 100 nL pin head, and plates were incubated at 37° C. for 48 h.
(§7) Cell viability was measured by adding 20 μL of Cell Titer-Glo Luminescent Cell Viability Reagent diluted 1:3 in PBS. Plates were sealed with Perkin Elmer Top-Seal, inverted several times to mix, and immediately centrifuged at 1000 rpm for 2 min. Plates were incubated in low light conditions for 8-10 min and luminescence was measured.

Ba/F3-EGFR-L858R cells = Ba/F3-EGFR-L858R cells (Homo sapiens, UniProt P00533, L858R, cells depend on it); assay: Ba/F3 cell survival assay, EGFR L858R; format: cell-based; details: without IL-3, without EGF, 48 h; read-out: BA/F3 (EGFR L858R) IC50
Method: as §3, §4, §5, §6, §7

Ba/F3-EGFR L861Q cells = Ba/F3-EGFR L861Q cells (Homo sapiens, UniProt P00533, L861Q, cells depend on it); assay: Ba/F3 cell survival assay, EGFR L861Q; format: cell-based; details: without IL-3, without EGF, 48 h; read-out: BA/F3 (EGFR L861Q) IC50
Sequence of Ba/F3-EGFR L861Q cells (P00533 whole entry L861Q): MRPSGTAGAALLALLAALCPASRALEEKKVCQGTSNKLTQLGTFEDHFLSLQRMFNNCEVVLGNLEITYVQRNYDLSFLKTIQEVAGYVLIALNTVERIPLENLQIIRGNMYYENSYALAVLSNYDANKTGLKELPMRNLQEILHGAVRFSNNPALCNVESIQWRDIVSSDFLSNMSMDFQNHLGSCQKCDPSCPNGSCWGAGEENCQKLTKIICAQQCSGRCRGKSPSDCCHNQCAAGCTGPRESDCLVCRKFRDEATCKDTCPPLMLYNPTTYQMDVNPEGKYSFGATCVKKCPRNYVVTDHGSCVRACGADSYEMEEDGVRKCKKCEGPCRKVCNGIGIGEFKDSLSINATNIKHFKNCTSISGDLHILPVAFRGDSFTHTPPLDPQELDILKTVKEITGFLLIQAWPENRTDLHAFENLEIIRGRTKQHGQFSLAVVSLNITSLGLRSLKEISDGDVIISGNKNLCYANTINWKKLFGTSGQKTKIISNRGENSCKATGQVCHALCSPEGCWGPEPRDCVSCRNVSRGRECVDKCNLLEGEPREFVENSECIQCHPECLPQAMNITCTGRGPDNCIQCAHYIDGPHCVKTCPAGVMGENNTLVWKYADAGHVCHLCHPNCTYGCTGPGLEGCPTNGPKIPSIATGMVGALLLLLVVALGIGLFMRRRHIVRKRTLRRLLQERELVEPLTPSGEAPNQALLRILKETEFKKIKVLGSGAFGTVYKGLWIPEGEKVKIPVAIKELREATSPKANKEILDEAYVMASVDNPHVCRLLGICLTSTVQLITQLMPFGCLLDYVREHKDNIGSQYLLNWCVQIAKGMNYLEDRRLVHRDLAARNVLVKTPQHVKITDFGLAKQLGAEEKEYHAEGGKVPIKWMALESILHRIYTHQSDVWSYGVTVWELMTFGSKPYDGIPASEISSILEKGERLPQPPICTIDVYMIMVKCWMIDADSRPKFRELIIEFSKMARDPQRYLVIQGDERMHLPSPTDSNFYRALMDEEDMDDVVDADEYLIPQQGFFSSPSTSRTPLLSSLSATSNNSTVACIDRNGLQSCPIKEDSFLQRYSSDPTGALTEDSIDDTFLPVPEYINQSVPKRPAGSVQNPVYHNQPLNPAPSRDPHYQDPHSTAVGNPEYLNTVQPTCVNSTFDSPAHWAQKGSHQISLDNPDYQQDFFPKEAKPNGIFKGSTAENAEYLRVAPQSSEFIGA
Method: as §3, §4, §5, §6, §7

[4] = molecular target: Ba/F3-EGFR-E746_A750del cells (Homo sapiens, UniProt P00533, DEL746-750, cells depend on it); assay: Ba/F3 cell survival assay, EGFR E746_A750del; format: cell-based; details: without IL-3, without EGF, 48 h; read-out: BA/F3 (EGFR E746_A750del) IC50
Method: as §3, §4, §5, §6, §7

Sequence of Ba/F3-EGFR-WT cells (P00533 whole entry, stated change not applied): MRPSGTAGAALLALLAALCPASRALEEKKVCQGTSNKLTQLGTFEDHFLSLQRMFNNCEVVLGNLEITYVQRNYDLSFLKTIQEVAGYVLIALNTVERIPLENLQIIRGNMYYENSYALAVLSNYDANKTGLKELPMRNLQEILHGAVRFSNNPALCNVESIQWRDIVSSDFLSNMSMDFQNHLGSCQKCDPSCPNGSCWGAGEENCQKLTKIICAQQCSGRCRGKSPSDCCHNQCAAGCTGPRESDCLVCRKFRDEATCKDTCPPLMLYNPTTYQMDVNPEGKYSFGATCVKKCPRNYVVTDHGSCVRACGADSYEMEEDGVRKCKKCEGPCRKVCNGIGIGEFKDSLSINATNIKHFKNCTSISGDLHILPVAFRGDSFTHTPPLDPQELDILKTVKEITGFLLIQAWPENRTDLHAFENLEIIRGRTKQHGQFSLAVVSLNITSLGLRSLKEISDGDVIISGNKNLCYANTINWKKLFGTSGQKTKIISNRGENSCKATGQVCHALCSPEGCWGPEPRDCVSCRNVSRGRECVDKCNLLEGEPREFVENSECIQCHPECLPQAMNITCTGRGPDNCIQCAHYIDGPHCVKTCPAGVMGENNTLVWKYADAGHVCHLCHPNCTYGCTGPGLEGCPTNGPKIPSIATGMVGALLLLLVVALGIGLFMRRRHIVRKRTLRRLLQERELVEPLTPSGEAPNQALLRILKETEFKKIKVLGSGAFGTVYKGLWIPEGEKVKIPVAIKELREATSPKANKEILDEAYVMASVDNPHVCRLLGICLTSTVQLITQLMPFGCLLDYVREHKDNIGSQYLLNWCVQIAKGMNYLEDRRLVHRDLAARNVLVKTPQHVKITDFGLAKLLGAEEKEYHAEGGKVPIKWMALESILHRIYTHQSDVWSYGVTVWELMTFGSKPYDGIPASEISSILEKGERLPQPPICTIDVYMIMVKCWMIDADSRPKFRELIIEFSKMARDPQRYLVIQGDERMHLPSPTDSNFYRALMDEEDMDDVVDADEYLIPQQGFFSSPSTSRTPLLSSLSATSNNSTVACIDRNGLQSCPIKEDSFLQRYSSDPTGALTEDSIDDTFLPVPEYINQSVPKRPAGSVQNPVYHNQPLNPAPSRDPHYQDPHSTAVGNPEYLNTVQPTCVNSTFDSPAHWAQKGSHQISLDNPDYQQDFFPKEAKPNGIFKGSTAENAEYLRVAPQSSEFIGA

COc1c(F)cccc1Nc1c(-c2ccncc2OCC2COCCO2)[nH]c2c1C(=O)NCC2 (single isomer, unassigned) [Example 6, 2-{3-[(1,4-dioxan-2-yl)methoxy]pyridin-4-yl}-3-(3-fluoro-2-methoxyanilino)-1,5,6,7-tetrahydro-4H-pyrrolo[3,2-c]pyridin-4-one]
GI50 (Ba/F3-EGFR-WT cells): 785 nM | GI50 (Ba/F3-EGFR-insSVD cells): 50.3 nM | mutEGFR (D770_N771insSVD) kinase assay IC50 [1]: 0.1 nM | IC50 (PC9 cells (EGFRex19del)): 1.94 nM | IC50 (Bub1): 6310 nM | IC50 [2]: < 3 nM | GI50 [3]: 31.8 nM

CCc1c(Cl)cccc1Nc1c(-c2ccncc2OCC2CN(C)CCO2)[nH]c2c1C(=O)NCC2 (centres unmarked) [Example 29, 3-(3-chloro-2-ethylanilino)-2-{3-[(4-methylmorpholin-2-yl)methoxy]pyridin-4-yl}-1,5,6,7-tetrahydro-4H-pyrrolo[3,2-c]pyridin-4-one]
GI50 (Ba/F3-EGFR-WT cells): 621 nM | GI50 (Ba/F3-EGFR-insSVD cells): 33.6 nM | mutEGFR (D770_N771insSVD) kinase assay IC50 [1]: 0.547 nM | IC50 (Bub1): 17200 nM | GI50 (Ba/F3-EGFR-L858R cells): 0.964 nM | GI50 (Ba/F3-EGFR L861Q cells): 16.2 nM | GI50 [4]: 0.332 nM
